Data as given in patent US7998954B2, “Pyrimidodiazepinone derivative” (Kyowa Hakko Kirin Co., Ltd., priority 2007, dated 2011).

test system: Rats with chronic constriction nerve injury; assay: Analgesic effect in rats with chronic constriction nerve injury (von Frey filaments, 50% pain threshold); assay type: in vivo, rat; settings: oral, dose of 30 mg/kg or less, measured after 3 hours
Text: Analgesic Effect of Compounds in Rats with Chronic Constriction Nerve Injury
Rats with chronic constriction nerve injury were produced by partially modifying the method of Mosconi and Kruger et al. [Pain, 1996, Vol. 64, p. 37-57] with slight modification.
The sciatic nerve in the left posterior leg of male Crl:CD (SD) rats was exfoliated under pentobarbital anesthesia, and a polyethylene tube (trade name: Intramedic; size: PE-60; Becton Dickinson) having a length of 2 mm was wrapped over the site of exfoliation. On days 14 to 21 after the surgery, the rats were placed in an acrylic quadruple cage (width 900 mm×depth 210 mm×height 140 mm) with a wire mesh floor consisting 4 cages connected in a row. Pain evaluation was performed after at least 20 minutes to allow the rats to acclimate to the new environment.
In pain evaluation, von Frey filaments (trade name: Touch Test Sensory Evaluator; Model: 58011; Muromachi Kikai Co., Ltd.) were used. The results were calculated as a pain thresholds. That is, by using a von Frey filament of different stimulus intensity, stimulation was given to the plantar surface of the injured side of rats with chronic constriction nerve injury, and the stimulus intensity to cause paw withdrawal response was obtained. […] 441-462]. The 50% pain thresholds of normal rats were 10 to 12 g on average.
For the evaluation of test compounds, rats with 50% pain thresholds of less than 4 g were used. The test compounds were suspended in a 0.5% aqueous methyl cellulose solution, and orally administered at a volume of 5 mL/kg. After 3 hours, pain thresholds were measured using von Frey filaments.

| Structure (SMILES) | pain thresholds (50% paw withdrawal thresholds) |
| --- | --- |
| CCNc1ncc2c(n1)N1CCCC1CN(c1cccc(-c3ccnc(Cl)c3)c1)C2=O (stereo not shown) [Compound 16, 5-[3-(2-Chloropyridin-4-yl)phenyl]-9-ethylamino-1,2,3,3a,4,5-hexahydro-5,8,10,10b-tetraazabenzo[e]azulen-6-one] | significantly increased pain thresholds |
| CCNc1ncc2c(n1)N1CCCC1CN(c1cccc(-c3nnc(C)o3)c1)C2=O (stereo not shown) [Compound 20, 9-Ethylamino-5-[3-(5-methyl-[1,3,4]oxadiazol-2-yl)phenyl]-1,2,3,3a,4,5-hexahydro-5,8,10,10b-tetraazabenzo[e]azulen-6-one] | significantly increased pain thresholds |
| CCNc1ncc2c(n1)N1CCC[C@H]1CN(c1cncc(-c3nnc(C)o3)c1)C2=O [Compound 43, (S)-9-Ethylamino-5-[5-(5-methyl-1,3,4-oxadiazol-2-yl)pyridin-3-yl]-1,2,3,3a,4,5-hexahydro-5,8,10,10b-tetraazabenzo[e]azulen-6-one] | significantly increased pain thresholds |
| CCNc1ncc2c(n1)N1CCC[C@H]1CN(c1cccc(-c3noc(C)n3)c1)C2=O [Compound 72, (S)-9-Ethylamino-5-[3-(5-methyl-1,2,4-oxadiazol-3-yl)phenyl]-1,2,3,3a,4,5-hexahydro-5,8,10,10b-tetraazabenzo[e]azulen-6-one] | significantly increased pain thresholds |
| CNc1ncc2c(n1)N1CCC[C@H]1CN(c1cccc(-c3noc(C)n3)c1)C2=O [Compound 74, (S)-5-[3-(5-Methyl-1,2,4-oxadiazol-3-yl)phenyl]-9-methylamino-1,2,3,3a,4,5-hexahydro-5,8,10,10b-tetraazabenzo[e]azulen-6-one] | significantly increased pain thresholds |
| CNc1ncc2c(n1)N1CCC[C@H]1CN(c1cccc(-c3nn(C)c(=O)o3)c1)C2=O [Compound 89, (S)-3-Methyl-5-[3-(9-methylamino-6-oxo-2,3,3a,4-tetrahydro-1H,6H-5,8,10,10b-tetraazabenzo[e]azulen-5-yl)phenyl]-1,3,4-oxadiazol-2(3H)-one] | significantly increased pain thresholds |
| CCNc1ncc2c(n1)N1CCC[C@H]1CN(c1cccc(-c3nn(C)c(=O)o3)c1)C2=O [Compound 90, (S)-5-[3-(9-Ethylamino-6-oxo-2,3,3a,4-tetrahydro-1H,6H-5,8,10,10b-tetraazabenzo[e]azulen-5-yl)phenyl]-3-methyl-1,3,4-oxadiazol-2(3H)-one] | significantly increased pain thresholds |
| CNc1ncc2c(n1)N1CCC[C@H]1CN(c1cccc(-c3nnn(C)n3)c1)C2=O [Compound 137, (S)-5-[3-(2-Methyl-2H-tetrazol-5-yl)phenyl]-9-methylamino-1,2,3,3a,4,5-hexahydro-5,8,10,10b-tetraazabenzo[e]azulen-6-one] | significantly increased pain thresholds |

test system: chronic dermatitis model with repeated hapten applications; assay: Effects on pruritus in chronic dermatitis model with repeated hapten (oxazolone) applications; assay type: in vivo; settings: 100 mg/kg oral, 1 hour before antigen application on day 16; BALB/c mice; ***P < 0.001, t-test vs control group
Text: Effects on Pruritus in Chronic Dermatitis Model with Repeated Hapten Applications
A chronic dermatitis model with repeated hapten applications was produced by partially modifying the method of Kitagaki et al. [Journal of Investigative Dermatology, 1995, Vol. 105, p. 749-755].
Oxazolone (Sigma-Aldrich) was used as hapten, and dissolved in acetone (Kanto Kagaku) to prepare a 0.5 w/v % oxazolone-acetone solution (antigen solution). BALB/c mice (6 weeks of age) were sensitized by a single application of the antigen solution (10 μL) to the shaved rostral back. […]
Itch response of the mice on day 16 was analyzed by partially modifying the method of Kuraishi et al. [European journal of phamacology, 1995, Vol. 275, p. […]
To allow the mice to acclimate to new environment, the mice were left in an acrylic observation cage (7.5×8×15 cm) for 1 hour. The mice were put back into the cage immediately after the application of the antigen solution to the rostral back, and the behavior of the mice was monitored unattended with an 8 mm video camera recorder. […] During the observation, scratching movements with the hind paws around the site of antigen solution application was counted. […] A series of these movements was counted as a single scratching movement.

| Structure (SMILES) | The number of scratching movements during 1 hr after the hapten applications [counts] |
| --- | --- |
| CCNc1ncc2c(n1)N1CCC[C@H]1CN(Cc1ccc(F)cc1F)C2=O [Compound 3, (S)-5-(2,4-Difluorobenzyl)-9-ethylamino-1,2,3,3a,4,5-hexahydro-5,8,10,10b-tetraazabenzo[e]azulen-6-one] | 225±37 |
| CCNc1ncc2c(n1)N1CCC[C@H]1CN(CC1CCN(C(=O)c3ccco3)CC1)C2=O [Compound 35, (S)-9-Ethylamino-5-[1-(furan-2-carbonyl)piperidin-4-yl]methyl-1,2,3,3a,4,5-hexahydro-5,8,10,10b-tetraazabenzo[e]azulen-6-one] | 84±33 |
